Data set [1] is described as follows: upper aqueous solution pH attained without precipitating zinc hydroxide. The conditions noted are these: 1:3 molar ratio of zinc to ligand. The format is physicochemical.
The conditions of data set [2]: binding affinity of one ligand with free zinc ion; recorded at pH 7.4.
Protocol: The log Ks1 is the logarithm of the primary Stability Constant which is the binding affinity for a particular ligand with a particular metal ion, in the present invention zinc. […] Since [L] is a function of the solution pH, due to the required initial deprotonation of the ligand, as a reference point, the log Ks1 values described were recorded at pH 7.4.

The structures appear in SMILES notation.

For `CC(=O)O` [acetic acid], the “pH at which zinc hydroxide precipitates” value in data set [1] is reported as 5.82; in data set [1] (listed as acetate), “below 6”.
For the compound `NCC(=O)O` [glycine], in data set [1], the “pH at which zinc hydroxide precipitates” value is reported as >10. Further, the “zinc-ligand (log Ks1)” value in data set [2] is listed as 5.16.

For the origin of these results see patent US20090202453A1, “Oral Composition” (Hindustan Lever Limited, priority 2004, published 2009).
